Results published in patent US20230371507A1 (priority 2020, published 2023).
Like-named read-outs stand apart in the source and are kept apart here.

Columns and labels:
P. infestans = format: cell-based, Phytophthora infestans
[1] = system: Phytophthora infestans strain Pi61; format: in vivo; details: in methanol, applied at 150 g/ha; Shirlan applied at 200 g/ha (FIGS. 10a, 10b)
[2] = system: Puccinia triticina strain BT06M215; experiment: in planta intensity of infection of wheat leaves by Puccinia triticina; format: in vivo
From the text: This experiment illustrates the effect of the crude extract (YE) of P. aphidis, synthetic (E)-2-octyl-2-pentenedioic acid (PA), extracted 2-octyl-2 pentenedioic acid from Pseudozyma aphidis in methanol, Rhapsody® (Bacillus subtilis) and Amistart (azoxystrobin) at 0.1% on the intensity of infection of wheat leaf fragments by uredospores of Puccinia triticina strain BT06M215. Rhapsody® (Bacillus subtilis) and Amistar® (azoxystrobin) are commercially available fungicidal solutions. P. titicina strain BT06M215 was isolated from untreated wheat leaves in France.
All fungicidal products were prepared in a volume of water corresponding to 200 L/ha. […]
For each experimental condition tested, 18 replicates of one wheat leaf were tested. […] Disease assessment (intensity of infection) on the first leaf of each wheat plantlets is monitored at 8 to 15 days post inoculation.

[3] = system: Zymoseptoria tritici strain Mg Tri-R6; format: in vivo; details: wheat; in methanol, applied at 100 gr/ha; Proline applied at 0.8 L/ha (FIGS. 7a, 7b)
B. cinerea [4] = experiment: bio-assay in liquid medium (PDB) with B. cinerea as indicator strain; format: cell-based, Botrytis cinerea; details: at both a pH of 3 and a pH of 5 (FIG. 1)
Description: 2-octyl-2 pentenedioic acid was also evaluated for antifungal activity using bio-assay in liquid medium using B. cinerea as an indicator strain. The bio-assay was carried out in PDB liquid medium.
The bio-assay for determination of antifungal activity was set-up based on the procedure as described in Stammler and Speakman, 2006. Microtiter Method to Test the Sensitivity of Botrytis cinerea to Boscalid. Journal of Phytopathology, 154, 7-8, p 508-510. This bio-assay is based on dilution of the antimicrobial agent and determination of growth inhibition of a sensitive indicator strain, in this case Botrytis cinerea. The bio-assay was performed in 96-well microtiter plates and included micro-dilutions of the antimicrobial agent in a liquid growth medium, where each well was inoculated with a standardized number of fungal spores of the indicator strain. After incubation (no agitation, 18° C. in darkness for 5 days), the results were obtained by measurement of fungal growth by photometer at 405 nm and the values were corrected by comparison with the blanks (cultures without the antimicrobial compound). The ED (effective dose) values are compared with reference standard fungicides.

B. cinerea [5] = experiment: bio-assay with tomato leaves against B. cinerea; format: in vivo, Botrytis cinerea
From the text: The untreated control (#2, only 70% ethanol) was taken as a reference for the maximal infection rate.

Structure (SMILES) | ED90 (P. infestans; pH 4.6, V8 juice liquid media) [ppm] | ED90 (P. infestans; pH 6.2, V8 juice liquid media) [ppm] | ED90 (P. infestans; pH 8.0, V8 juice liquid media) | efficacy against Phytophthora infestans compared to Shirlan (fluazinam) [1] | efficacy against Puccinia triticina compared to Rhapsody ([2]; Rhapsody applied at 2.0 L/ha (FIGS. 3a, 3b)) | efficacy against Zymoseptoria tritici compared to Proline [3] | efficacy against B. cinerea (B. cinerea [4]) | efficacy against Puccinia triticina compared to Amistar ([2]; in methanol, applied at 100 g/ha, Amistar applied at 1 L/ha (FIGS. 4a, 4b)) | effect on B. cinerea infection (in words) (B. cinerea [5])
CCCCCCCC/C(=C\CC(=O)O)C(=O)O [2-octyl-2 pentenedioic acid (synthetic), (E)-2-octyl-2-pentenedioic acid] | 41 | 42 | Not detected | comparable efficacy | comparable efficacy |  |  |  | 
CCCCCCCCC(=CCC(=O)O)C(=O)O [2-octyl-2 pentenedioic acid] | 37 | 41 | Not detected |  |  | comparable efficacy | excellent efficacy | comparable efficacy | 
CC(=O)O [Sample 3, Acetic acid] |  |  |  |  |  |  |  |  | inhibited B. cinerea infection
